Results as given in PMC8765293, “Inhibitor-Resistant Mutants Give Important Insights into Candida albicans ABC Transporter Cdr1 Substrate Specificity and Help Elucidate Efflux Pump Inhibition” (Antimicrobial Agents and Chemotherapy, 2022).
≈ marks a conversion by molar mass, not a printed value. Where two headings read alike, the source gives them in different places.

Tests used:
wt Cdr1 ATPase activity = wt Cdr1 ATPase activity (Candida albicans, UniProt Q5ANA3); assay: biochemical; details: for Vmax of ATPase activity in the presence of inhibitor: CDR1
[1] = system: AD/CDR1 (AD1-8u- overexpressing wt Cdr1); assay: MIC, modified CLSI M27-A3 broth microdilution; details: Saccharomyces cerevisiae, read-out: MIC (drug susceptibility)
AD/CDR1-G521R = assay: MIC, modified CLSI M27-A3 broth microdilution; details: for MIC: Saccharomyces cerevisiae, read-out: MIC (drug susceptibility); for Fold-reduced resistance level (MIC) relative to AD/CDR1: G521R, 1 = no change
AD/CDR1-T1355N = assay: MIC, modified CLSI M27-A3 broth microdilution; details: for MIC: Saccharomyces cerevisiae, read-out: MIC (drug susceptibility); for Fold-reduced resistance level (MIC) relative to AD/CDR1: T1355N, 1 = no change
AD/CDR1-A713P = assay: MIC, modified CLSI M27-A3 broth microdilution; details: for Fold-reduced resistance level (MIC) relative to AD/CDR1: A713P, 1 = no change; for MIC: Saccharomyces cerevisiae, read-out: MIC (drug susceptibility)
[2] = system: AD/pABC3 (empty vector control, sensitive strain); assay: microbe, parasite or virus in culture; details: Saccharomyces cerevisiae
AD/CDR1-M639I = assay: MIC, modified CLSI M27-A3 broth microdilution; details: for Fold-reduced resistance level (MIC) relative to AD/CDR1: M639I, 1 = no change; for MIC: Saccharomyces cerevisiae, read-out: MIC (drug susceptibility)
[3] = CDR1 (wt), > = only partial inhibition, none = no reduction at highest concentration, read-out: Estimated IC50 for substrate inhibition of the ATPase activity
[4] = read-out: MIC (drug susceptibility), strain AD/pABC3
[5] = read-out: MIC (drug susceptibility)

Chain of wt Cdr1 ATPase activity (Q5ANA3 whole entry): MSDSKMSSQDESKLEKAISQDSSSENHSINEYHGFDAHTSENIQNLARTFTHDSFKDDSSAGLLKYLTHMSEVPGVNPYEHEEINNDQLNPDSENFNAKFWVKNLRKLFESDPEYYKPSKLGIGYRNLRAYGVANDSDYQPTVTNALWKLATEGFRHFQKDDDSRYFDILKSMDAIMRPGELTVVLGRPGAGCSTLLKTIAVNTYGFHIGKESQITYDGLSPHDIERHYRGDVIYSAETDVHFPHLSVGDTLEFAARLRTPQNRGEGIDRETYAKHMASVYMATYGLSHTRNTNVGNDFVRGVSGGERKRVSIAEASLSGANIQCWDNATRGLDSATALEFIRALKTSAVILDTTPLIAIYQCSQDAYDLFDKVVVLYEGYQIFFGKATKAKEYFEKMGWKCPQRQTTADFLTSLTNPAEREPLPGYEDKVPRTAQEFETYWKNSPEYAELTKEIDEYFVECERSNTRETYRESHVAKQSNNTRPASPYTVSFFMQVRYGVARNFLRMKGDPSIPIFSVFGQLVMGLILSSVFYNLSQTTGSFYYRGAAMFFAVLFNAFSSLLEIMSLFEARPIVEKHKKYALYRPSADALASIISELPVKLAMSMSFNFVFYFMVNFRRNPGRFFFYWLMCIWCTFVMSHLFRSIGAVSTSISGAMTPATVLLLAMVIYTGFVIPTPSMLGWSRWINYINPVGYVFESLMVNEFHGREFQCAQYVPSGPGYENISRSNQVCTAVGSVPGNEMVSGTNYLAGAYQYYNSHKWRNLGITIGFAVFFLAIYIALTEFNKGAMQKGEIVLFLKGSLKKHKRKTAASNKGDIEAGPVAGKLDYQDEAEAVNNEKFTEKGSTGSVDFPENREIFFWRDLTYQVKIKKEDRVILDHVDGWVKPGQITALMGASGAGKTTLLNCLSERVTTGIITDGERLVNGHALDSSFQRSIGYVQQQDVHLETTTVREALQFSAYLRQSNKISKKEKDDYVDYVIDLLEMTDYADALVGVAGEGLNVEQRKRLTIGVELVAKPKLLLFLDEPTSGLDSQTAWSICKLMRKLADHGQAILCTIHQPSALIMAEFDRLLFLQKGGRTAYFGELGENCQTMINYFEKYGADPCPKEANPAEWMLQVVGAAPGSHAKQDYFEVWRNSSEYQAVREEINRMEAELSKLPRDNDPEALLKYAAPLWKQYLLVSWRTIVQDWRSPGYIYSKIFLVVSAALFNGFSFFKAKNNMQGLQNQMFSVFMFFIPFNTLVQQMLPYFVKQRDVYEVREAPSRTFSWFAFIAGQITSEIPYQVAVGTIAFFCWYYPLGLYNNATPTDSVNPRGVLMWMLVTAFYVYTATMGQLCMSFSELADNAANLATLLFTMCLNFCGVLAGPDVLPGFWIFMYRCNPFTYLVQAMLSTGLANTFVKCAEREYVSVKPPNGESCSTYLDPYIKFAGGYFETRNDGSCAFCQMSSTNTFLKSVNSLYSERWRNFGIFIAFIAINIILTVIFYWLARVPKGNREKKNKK

With `CO[C@@H]1C[C@@H](C[C@H]2CC[C@H](C)[C@H]([C@@H](C)C(=O)O)O2)O[C@]2(O[C@](C)([C@H]3CC[C@@](C)([C@@H]4O[C@@H]([C@H]5O[C@@](O)(CO)[C@H](C)C[C@@H]5C)C[C@@H]4C)O3)C[C@H]2C)[C@@H]1C` [NIG, nigericin] the IC50 (wt Cdr1 ATPase activity; [3]) was over 256 µM, the MIC [1] was 128 µg/mL (≈ 177 µM) and the MIC (AD/CDR1-G521R) was 0.25 µg/mL (≈ 0.345 µM). The MIC (AD/CDR1-T1355N) was 128 µg/mL (≈ 177 µM), the “Fold-reduced resistance level (MIC) relative to AD/CDR1” value (AD/CDR1-T1355N) was 1 fold and the “Fold-reduced resistance level (MIC) relative to AD/CDR1” value (AD/CDR1-A713P) was 16 fold. The MIC (AD/CDR1-A713P) was 8 µg/mL (≈ 11 µM), the MIC [2, 4] was 0.063 µg/mL (≈ 0.0869 µM) and the “Fold-reduced resistance level (MIC) relative to AD/CDR1” value (AD/CDR1-M639I) was 1 fold. For the same molecule, the MIC (AD/CDR1-M639I) was 128 µg/mL (≈ 177 µM).
With `[O]=[V]([O-])([O-])[O-]` [Vanadate, vanadate] the Ki (wt Cdr1 ATPase activity; CDR1 (wt), Dixon plot, read-out: Ki (Cdr1 ATPase activity)) was 0.96 ± 0.08 µM, the IC50 (wt Cdr1 ATPase activity; CDR1 (wt), from Fig. 4, read-out: IC50 for inhibition of Cdr1 ATPase activity) was 1.2 µM and the “Vmax of ATPase activity in the presence of inhibitor” value (wt Cdr1 ATPase activity; [I] 0.5 μM) was 161 nmol/min/mg. For the same molecule, the “Vmax of ATPase activity in the presence of inhibitor” value (wt Cdr1 ATPase activity; [I] 2.0 μM) was 90 nmol/min/mg and the “type of inhibition of ATPase activity (Lineweaver-Burk)” value (wt Cdr1 ATPase activity; wt Cdr1) was “uncompetitive inhibitor”.
Work on `C/C1=C/C(=O)O[C@@H]2C[C@@H](CC[C@H](C)/C=C\C=C\CC1)O[C@@](O)([C@@H]1CSC(=O)N1)C2` [LaA, latrunculin A] yielded an MIC [1] of 8 µg/mL (≈ 19 µM), an MIC (AD/CDR1-G521R) of 0.125 µg/mL (≈ 0.297 µM) and an MIC (AD/CDR1-T1355N) of 2 µg/mL (≈ 4.74 µM). For the same molecule, the “Fold-reduced resistance level (MIC) relative to AD/CDR1” value (AD/CDR1-T1355N) was 4 fold, the “Fold-reduced resistance level (MIC) relative to AD/CDR1” value (AD/CDR1-A713P) was 4 fold and the MIC (AD/CDR1-A713P) was 2 µg/mL (≈ 4.74 µM). The MIC [2, 5] was 0.016 µg/mL (≈ 0.038 µM), the “Fold-reduced resistance level (MIC) relative to AD/CDR1” value (AD/CDR1-M639I) was 1 fold and the MIC (AD/CDR1-M639I) was 8 µg/mL (≈ 19 µM).
`Clc1ccc(COC(Cn2ccnc2)c2ccc(Cl)cc2Cl)c(Cl)c1` (stereo not drawn) [MCZ, miconazole] was tested, and the MIC [1] was 8 µg/mL (≈ 19.2 µM), the “Fold-reduced resistance level (MIC) relative to AD/CDR1” value (AD/CDR1-G521R) was 16 fold and the MIC (AD/CDR1-G521R) was 0.5 µg/mL (≈ 1.2 µM). For the same molecule, the MIC (AD/CDR1-T1355N) was 2 µg/mL (≈ 4.81 µM), the “Fold-reduced resistance level (MIC) relative to AD/CDR1” value (AD/CDR1-T1355N) was 4 fold and the “Fold-reduced resistance level (MIC) relative to AD/CDR1” value (AD/CDR1-A713P) was 8 fold. For the same molecule, the MIC (AD/CDR1-A713P) was 1 µg/mL (≈ 2.4 µM), the MIC [2, 5] was 0.008 µg/mL (≈ 0.0192 µM) and the “Fold-reduced resistance level (MIC) relative to AD/CDR1” value (AD/CDR1-M639I) was 4 fold. The MIC (AD/CDR1-M639I) was 2 µg/mL (≈ 4.81 µM).
`C/C=C/C/C=C/CCC(=O)[C@H]1O[C@H]1C(N)=O` [CER, cerulenin] was tested, and the MIC [1] was 8 µg/mL (≈ 35.8 µM), the “Fold-reduced resistance level (MIC) relative to AD/CDR1” value (AD/CDR1-G521R) was 2 fold and the MIC (AD/CDR1-G521R) was 4 µg/mL (≈ 17.9 µM). The MIC (AD/CDR1-T1355N) was 4 µg/mL (≈ 17.9 µM), the “Fold-reduced resistance level (MIC) relative to AD/CDR1” value (AD/CDR1-T1355N) was 2 fold and the “Fold-reduced resistance level (MIC) relative to AD/CDR1” value (AD/CDR1-A713P) was 2 fold. For the same molecule, the MIC (AD/CDR1-A713P) was 4 µg/mL (≈ 17.9 µM), the MIC [2, 4] was 0.25 µg/mL (≈ 1.12 µM) and the “Fold-reduced resistance level (MIC) relative to AD/CDR1” value (AD/CDR1-M639I) was 2 fold. It also gave an MIC (AD/CDR1-M639I) of 4 µg/mL (≈ 17.9 µM).
For `CC[C@@]1([C@@H]2O[C@@H]([C@H]3O[C@@](O)(CO)[C@H](C)C[C@@H]3C)C[C@@H]2C)CC[C@H]([C@]2(C)CC[C@]3(C[C@H](O)[C@@H](C)[C@@H]([C@@H](C)[C@@H](OC)[C@H](C)C(=O)O)O3)O2)O1` [MON, monensin], the IC50 (wt Cdr1 ATPase activity; [3]) was over 256 µM, the MIC [1] was 128 µg/mL (≈ 191 µM) and the “Fold-reduced resistance level (MIC) relative to AD/CDR1” value (AD/CDR1-G521R) was 256 fold. The MIC (AD/CDR1-G521R) was 0.5 µg/mL (≈ 0.745 µM), the MIC (AD/CDR1-T1355N) was 128 µg/mL (≈ 191 µM) and the “Fold-reduced resistance level (MIC) relative to AD/CDR1” value (AD/CDR1-T1355N) was 1 fold. The MIC (AD/CDR1-A713P) was 128 µg/mL (≈ 191 µM), the MIC [2, 4] was 0.031 µg/mL (≈ 0.0462 µM) and the “Fold-reduced resistance level (MIC) relative to AD/CDR1” value (AD/CDR1-M639I) was 1 fold. The MIC (AD/CDR1-M639I) was 128 µg/mL (≈ 191 µM).
`CC/N=c1\cc2oc3cc(NCC)c(C)cc3c(-c3ccccc3C(=O)OCC)c-2cc1C` [R6G, rhodamine 6G] was tested, and the IC50 (wt Cdr1 ATPase activity; [3]) was 32 µM, the MIC [1] was 32 µg/mL (≈ 72.3 µM) and the “Fold-reduced resistance level (MIC) relative to AD/CDR1” value (AD/CDR1-G521R) was 8 fold. The MIC (AD/CDR1-G521R) was 4 µg/mL (≈ 9.04 µM), the MIC (AD/CDR1-T1355N) was 32 µg/mL (≈ 72.3 µM) and the “Fold-reduced resistance level (MIC) relative to AD/CDR1” value (AD/CDR1-T1355N) was 1 fold. The MIC (AD/CDR1-A713P) was 32 µg/mL (≈ 72.3 µM), the MIC [2, 4] was 0.5 µg/mL (≈ 1.13 µM) and the “Fold-reduced resistance level (MIC) relative to AD/CDR1” value (AD/CDR1-M639I) was 2 fold. The MIC (AD/CDR1-M639I) was 16 µg/mL (≈ 36.2 µM).
`Clc1ccccc1C(c1ccccc1)(c1ccccc1)n1ccnc1` [CLT, clotrimazole] was tested, and the MIC [1] was 8 µg/mL (≈ 23.2 µM), the MIC (AD/CDR1-T1355N) was 4 µg/mL (≈ 11.6 µM) and the MIC (AD/CDR1-A713P) was 1 µg/mL (≈ 2.9 µM). For the same molecule, the MIC [2, 5] was 0.002 µg/mL (≈ 0.0058 µM) and the MIC (AD/CDR1-M639I) was 8 µg/mL (≈ 23.2 µM).
